Data published in patent US20210332024A1, “MODULATORS OF PIN1 ACTIVITY AND USES THEREOF” (Yeda Research and Development Co. Ltd., priority 2019, published 2021).

What was measured:
[1] = test system: transplanted EGFP-labeled neuroblastoma cells; experiment: Primary tumor derived allograft (PDA) neuroblastoma model in zebrafish embryos; format: in vivo; conditions: 100 μM in the fish water, five days
Description: The anti-tumor activity of Pin1-3 was then assessed on the maintenance of fully transformed neuroblastoma cells in vivo in primary tumor derived allograft (PDA) models constructed in transplanted zebrafish embryos. EGFP-labeled neuroblastoma cells were dissected from 4-month-old Tg(dβh:MYCN;dβh:EGFP) donor zebrafish, disaggregated, counted and 200-400 GFP-labeled tumor cells were injected intravenously into the Duct of Cuvier (common cardinal vein) of 2 dpf zebrafish embryos [He et al., J Pathol 2012, 227:431-445]. One day after injection, 100 μM Pin1-3 or the DMSO control was added to the fish water containing embryos bearing the transplanted EGFP-labeled neuroblastoma cells. Five days later, the area of the EGFP-labeled tumor mass in treated embryos was quantified.

[2] = target: cysteine targets throughout the proteome, MDA-MB-231 cells (Homo sapiens, UniProt Q13526); experiment: rdTOP-ABPP profiling of reactive cysteines; conditions: 5 μM, two biological replicates
Sequence of cysteine targets throughout the proteome, MDA-MB-231 cells (Homo sapiens, UniProt Q13526) (Q13526 whole entry): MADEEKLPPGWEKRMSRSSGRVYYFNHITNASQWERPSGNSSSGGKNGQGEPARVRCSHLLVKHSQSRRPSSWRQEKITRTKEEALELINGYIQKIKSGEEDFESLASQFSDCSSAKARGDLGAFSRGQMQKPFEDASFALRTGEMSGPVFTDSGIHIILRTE
Description: (§1) MDA-MB-231 cells were cultured at 37° C. under a 5% CO2 atmosphere in DMEM culture medium supplemented with 10% FBS and 1% PS. Cells were grown to 70% confluence and incubated with DMSO or 5 μM Pin1-3 for 2 hours with serum-free medium. Cells were harvested, lysed by sonication in ice-cold PBS containing 0.1% Triton™ X-100 and centrifuged at 100,000 g for 30 minutes to remove cell debris. Then protein concentrations were determined by BCA protein assay. Proteomes were normalized to 2 mg/ml in 1 ml for each sample. Each of the DMSO and Pin1-3 incubated proteomes was treated with 100 μM iodoacetamide alkyne for 1 hour at room temperature. […] Finally, the samples were prepared, analyzed on LC-MS/MS and quantified according to procedures described in Yang et al. [Anal Chem 2018, 90:9576-9582]. […] LC-MS/MS data was analyzed by ProLuCID™ algorithm (as described by Xu et al. [J Proteomics 2015, 129:16-24]) with static modification of cysteine (+57.0215 Da) and variable oxidation of methionine (+15.9949 Da). […] The ratios were quantified by CImage™ software [Weerapana et al., Nature 2010, 468, 790-795].
(§2) This variant of the isoTOP-ABPP technique enables the site-specific quantification of cysteine binding by label-free covalent inhibitors. […] After enrichment on beads, the peptides were isotopically derivatized by triplex reductive dimethylation, cleaved and analyzed via LC-MS/MS analysis.

[3] = test system: cysteine targets throughout the proteome, MDA-MB-231 cells; experiment: rdTOP-ABPP profiling of reactive cysteines; conditions: 5 μM
Description: as §1, §2

[4] = target: T1, Pin1 (Homo sapiens, UniProt Q13526); experiment: Pin1 levels in PDAC cells (Western blot); format: cell-based; conditions: treated for 3 days
T1 construct: endogenous in cells; host or cells: patient-derived PDAC cells
T1 sequence (Q13526 whole entry): as above
Description: Pancreatic ductal adenocarcinoma (PDAC) cells (derived from a human patient) were treated with Pin1-3 for 3 days. PDAC organoids were treated with Pin1-3 for 7 days (day 7 to day 14).

[5] = test system: germinal centers; experiment: Germinal center size after NP-OVA immunization; format: in vivo, mice; conditions: IP 40 mg/kg on days 7 and 9 post immunization, day 11
Description: 12 wild-type mice were immunized with OVA coupled to the hapten 4-hydroxy-3-nitrophenylacetyl (NP-OVA) precipitated in alum. The mice were injected with two doses of Pin1-3 (IP; 40 mg/kg) or vehicle on days 7 and 9 post immunization, and on day 11 the mice were sacrificed and germinal centers size was assessed in lymph nodes by flow cytometry.

[6] = test system: 300 suspension and hematopoietic human cancer cell lines; experiment: PRISM anti-proliferative profiling; format: cell-based; conditions: 120 h, all 300 cancer cell lines, 5-day treatment
Description: In order to profile the anti-proliferative activity of Pin1-3, the compound was submitted to the PRISM platform (Broad Institute) to evaluate its potency against 300 suspension and hematopoietic human cancer cell lines. The PRISM method enables high-throughput, pooled screening of mixtures of cell lines, which are each labeled with a 24-nucleotide barcode [Yu et al., Nat Biotechnol 2016, 34:419-423].

[7] = target: T2, Pin1 in PATU-8988T cells (Homo sapiens, UniProt Q13526); experiment: Live cell competition assay with Pin1-3-DTB pull-down, PATU-8988T cells; format: cell-based
T2 construct: endogenous in cells; host or cells: PATU-8988T
T2 sequence (Q13526 whole entry): as above
Description: The indicated cells were treated with increasing concentrations of either DMSO, Pin1-3, or Pin1-3-AcA for 5 hours. Cells were harvested by scraping and washed twice with PBS before lysis with 50 mM HEPES (pH 7.4), 1 mM EDTA, 10% glycerol, 1 mM TCEP, 150 mM NaCl, 1 mM EDTA, 0.5% NP-40, and protease inhibitor tablet (Roche cat. #4693159001). After clarifying (14,000 rpm for 15 minutes), samples were treated with the indicated concentrations of Pin1-3-DTB at 4° C. for 1 hour. Lysates were then incubated with streptavidin agarose resin (Thermo Scientific, cat. #20349) for 1.5 hour at 4° C. Beads were washed four times with 500 μl of washing buffer (50 mM HEPES (pH 7.5), 10 mM NaCl, 1 mM EDTA, 10% glycerol), then pelleted by centrifugation and dried. The beads were boiled for 5 minutes at 95° C. in 2×LDS+10% β-mercaptoethanol. Proteins of interest were then assessed via Western blotting using the bolt system (Life Technologies).
The indicated cells were plated in 10 cm plates with 2.5 million cells per plate in 6 ml of medium. The day after plating, cells were treated with the indicated concentrations of candidate inhibitor for the indicated time points. The cells were then washed two times with cold phosphate buffer saline (1 ml per 10 cm plate) and collected by scraping with a cell scraper. Cells were lysed in 50 mM HEPES (pH 7.4), 1 mM EDTA, 10% glycerol, 1 mM TCEP, 150 mM NaCl, 1 mM EDTA, 0.5% NP-40, and protease inhibitor tablet (Roche)-using 210 μl of cell lysis buffer per 10 cm plate of cells. After clarifying (14,000 rpm for 15 minutes), 9 μl of each lysate sample was combined with […] of 4×LDS+10% β-mercaptoethanol (in a ratio of 3:1), boiled for 5 minutes, and set aside for the input loading control. Then, 200 μl of each lysate sample was incubated with 1 μM of Pin1-3-DTB for 1 hour at 4° C. and processed as described hereinabove for the lysate pull-down assays.
In order to assess cell permeability of Pin1-3 as well as its ability to engage cellular Pin1, PATU-8988T cells were treated with Pin1-3 (0.25 to 1 μM) for 5 hours. After cell lysis, the lysates were incubated with Pin1-3-DTB (1 μM, 1 hour at 4° C.) and probe-labeled targets were pulled down with streptavidin beads.

[8] = target: T3, Pin1 (Mus musculus, UniProt Q9QUR7); experiment: In vivo Pin1 engagement, spleen competition pull-down; design: species or system mice
T3 construct: from tissue; host or cells: mouse spleen
T3 sequence (Q9QUR7 whole entry): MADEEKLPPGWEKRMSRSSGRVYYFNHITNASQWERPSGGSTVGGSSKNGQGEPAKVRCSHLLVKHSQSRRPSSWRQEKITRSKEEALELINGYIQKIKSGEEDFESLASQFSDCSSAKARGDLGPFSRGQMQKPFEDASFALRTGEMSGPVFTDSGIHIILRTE
Description: The in vivo engagement of Pin1 by Pin1-3 was then assessed using Pin1-3-DTB. Mice were treated with either vehicle, 10 mg/kg or 20 mg/kg Pin1-3 by oral gavage (QD) for 3 days, followed by lysis of the spleens for a competition pull-down experiment.

CC(C)(C)CN(C(=O)CCl)C1CCS(=O)(=O)C1 (stereo not drawn) [Pin1-3, 2-chloro-N-(sulfolan-3-yl)-N-neopentylacetamide]
EGFP-labeled tumor mass [1]: tumor masses decreased in size | Competition ratio R, Cys113 of Pin1 [2]: 15 | Competition ratio R, all other identified cysteines [3]: below 2.5 | Pin1 levels in PDAC cells [4]: reduced Pin1 in PDAC cells in a dose-dependent manner | Germinal centers size (FAS^Hi CD38^− GC cells, flow cytometry) [5]: significantly larger germinal centers | IC50 [6]: > 3000 nM | Engagement of Pin1 after 2 hours ([7]; 1 μM): about 50% | Time to complete engagement of Pin1 ([7]; 1 μM): ≤ 4 h | Competition with Pin1-3-DTB for Pin1 binding (pull-down) ([7]; 0.25 to 1 μM for 5 hours (Pin1-3-AcA 1 μM)): dose-dependent inhibition of Pin1-3-DTB pull-down | Concentration of maximal competition ([7]; 5 hours): 1 µM | Mice with effective Pin1 engagement ([8]; 10 mg/kg oral gavage QD for 3 days): 1 of the 3 mice | Mice with effective Pin1 engagement ([8]; 20 mg/kg oral gavage QD for 3 days): all 3 mice
